From patent publication US20150119245A1, “Method for Producing Shelf Stable Hypochlorous Acid Solutions” (priority 2013, published 2015)

How the values were obtained:
[1] = Window cleaner streak test, sprayed on glass and dried without wiping; settings: test solution as used in streak test
[2] = Available chlorine present as hypochlorous acid as a function of pH (FIG. 2); format: physicochemical
Excerpt: The concentration of hypochlorous acid solutions (HOCl) are usually reported as free available chlorine (FAC) in parts per million (ppm). Hypochlorous acid (HOCl) is in equilibrium with hypochlorite ion (^−OCl) and Cl2 and the extent of the equilibrium is controlled by the pH of the solution, as shown in FIG. 2. Therefore, both FAC and pH need to be known to understand the amount of chlorine present as hypochlorous acid.
Thus at pH 5, a 100 ppm FAC solution will have 100 ppm chlorine present as HOCl.

FAC present as hypochlorous acid ([2]; pH 7.5) [%]	available chlorine present as hypochlorous acid ([2]; pH of 3)	available chlorine present as HOCl ([2]; pH range of 4 to 5.6)	Compound	pH [1]
–	–	–	[Na+].[OH-] [NaOH, sodium hydroxide]	12.2
50	about 90%	approximately 100%	OCl [hypochlorous acid]	–
